In US6756371B1, “Phthalazinone derivatives as PDE4 inhibitors” (Altana Pharma AG, priority 1999, dated 2004):

Assays:
PDE4 = assay: Inhibition of PDE4 activity (method of Bauer and Schwabe, adapted to microtitre plates); assay type: biochemical
Method: Inhibition f PDE 4 Activity
The activity test was carried out according to the method of Bauer and Schwabe, which was adapted to microtitre plates (Naunyn-Schmiederberg's Arch. Pharmacol. 311, 193-198. 1980). In this test, the PDE reaction is carried out in the first step. In a second step, the resultant 5′-nucleotide is cleaved to the uncharged nucleoside by a snake venom 5′-nucleotidase from Crotalus Atrox. In the third step, the nucleoside is separated from the remaining charged substrate on ion exchange columns. The columns are eluted directly into minivials using 2 ml of 30 mM ammonium formate (pH 6.0), to which a further 2 ml or scintillation fluid is added for counting.
The inhibitory values determined for the compounds according to the invention follow from the following table A, in which the numbers of the compounds correspond to the numbers of the examples.

SMILES	melting point	Inhibition of PDE4 activity [measured as −logIC50 (mol/l)] (PDE4)
COc1ccc(C2=NN(c3ccc(C(=O)N4CCOCC4)cc3)C(=O)C3CC=CCC23)c2c1OC(C)(C)C2 (stereo not drawn) [compound 2, (cis)-4-(2,3-Dihydro-2,2-dimethyl-7-methoxybenzofuran-4-yl)-2-[4-(N-morpholinocarbonyl)-phenyl]-4a,5,8,8a-tetrahydro-2H-phthalazin-1-one]	–	8.77
CCOc1ccc(C2=NN(c3ccc(S(=O)(=O)N4CCOCC4)cc3)C(=O)C3CC=CCC23)cc1OCC (stereo not drawn) [compound 4, (cis)-4-(3,4-Diethoxyphenyl)-2-[4-(N-morpholinosulfonyl)phenyl]-4a,5,8,8a-tetrahydro-2H-phthalazin-1-one]	–	9.22
COc1ccc(C2=NN(c3ccc(S(=O)(=O)N4CCOCC4)cc3)C(=O)C3CC=CCC23)c2c1OC(C)(C)C2 (stereo not drawn) [compound 5, (cis)-4-(2,3-Dihydro-2,2-dimethyl-7-methoxybenzofuran-4-yl)-2-[4(N-morpholinosulfonyl)phenyl]-4a,5,8,8a-tetrahydro-2H-phthalazin-1-one]	–	9.71

Continued, in another order:

melting point	SMILES	Inhibition of PDE4 activity [measured as −logIC50 (mol/l)] (PDE4)
104 to 106 °C	CCOc1ccc(C2=NN(c3ccc(C(=O)N4CCSCC4)cc3)C(=O)[C@H]3CC=CC[C@@H]23)cc1OCC (relative stereo) [compound 3, (cis)-4-(3,4-Diethoxyphenyl)-2-[4-(1-thiomorpholin-4-ylcarbonyl)phenyl]-4a,5,8,8a-tetrahydro-2H-phthalazin-1-one]	7.82
186 to 187 °C	CCOc1ccc(C2=NN(c3ccc(C(=O)N4CCS(=O)(=O)CC4)cc3)C(=O)[C@H]3CC=CC[C@@H]23)cc1OCC (relative stereo) [compound 6, (cis)-4-(3,4-Diethoxyphenyl)-2-[4-(1,1-dioxothiomorpholin-4-ylcarbonyl)phenyl]-4a,5,8,8a-tetrahydro-2H-phthalazin-1-one]	7.81
144 to 145 °C	CCOc1ccc(C2=NN(c3ccc(C(=O)N4CCOCC4)cc3)C(=O)C3CC=CCC23)cc1OCC (stereo not drawn) [compound 1, (cis)-4-(3,4-Diethoxyphenyl)-2-[4-(N-morpholinocarbonyl)phenyl]-4a,5,8,8a-tetrahydro-2H-phthalazin-1-one]	7.99
